Here are results for five molecules from patent US11040958B2, “Triazole antimicrobial derivative, pharmaceutical composition and use thereof” (priority 2017, dated 2021).

Usually solubility stands for the dissolved amount per volume that the medium holds. Read a high solubility as a readily soluble substance. In general, Solubility refers to the dissolved amount per volume that the medium holds. Higher therefore signals much dissolved substance. As usually defined, the Cmax is the maximum level reached in the sampled fluid or tissue.

Read-outs that look alike come from different tables or passages of the source. Some results are limits rather than exact numbers.

A short description of data set [1]: In vitro metabolic stability in human intestinal S9. It counts as in vitro ADME. Conditions: 37°C, S9 1 mg/mL, compound 10 μM, NADPH regeneration system. The protocol: (§1) The two reaction systems were set up three samples in parallel, while each sample was taken in an amount of 100 μL at 1 min, 2 mins, 5 mins, 15 mins, and 30 mins after the reaction, added to the centrifuge tube containing 400 μL of 0° C. pre-cooled internal standard working fluid and terminated the reaction. The sample was mixed by vortex for 1 min, centrifuged at 10,000×g for 10 mins in a 4° C. pre-cooled high-speed centrifuge. The supernatant was taken for HPLC detection. […] Concentration of mother liquor of compounds: 1 mM […] [table]

Data set [2] can be described thus: In vitro metabolic stability in rat plasma. Conditions: 37°C, compound 10 μM. It counts as in vitro ADME. The protocol:
The two reaction systems were set up three samples in parallel, while each sample was taken in an amount of 100 μL at 1 min, 2 mins, 5 mins, 15 mins, and 30 mins after the reaction, added to the centrifuge tube containing 400 μL of 0° C. pre-cooled internal standard working fluid and terminated the reaction. The sample was mixed by vortex for 1 min, centrifuged at 10,000×g for 10 mins in a 4° C. pre-cooled high-speed centrifuge. The supernatant was taken for HPLC detection. […] Concentration of mother liquor of compounds: 1 mM […]

The nature of data set [3]: In vitro metabolic stability in rat intestinal S9. The format is in vitro ADME. Particulars: 37°C, S9 1 mg/mL, compound 10 μM, NADPH regeneration system. The protocol:
as §1

Data set [4] in a line: Solid stability test (25°C, RH 60%, 30 days). The format is physicochemical. Conditions: 25°C±2°C, relative humidity 60%±2%. How it is done: Experimental conditions: 25° C.±2° C., relative humidity 60%±2%
Experimental instrument: Agilent 1260 HPLC; chamber for stability test
Experimental method: each compound of the present disclosure was packaged (the inner packaging material was a penicillin bottle; the outer packaging material was a double-layer aluminum foil bag, and a desiccant was added inside and outside the package), placed in the chamber for stability test, at a temperature of 25° C.±2° C. and a relative humidity of 60%±2%. The degradation situation of the compounds for 30 days was examined. The contents of total impurities before and after 30 days of each compound were compared and the results were as follows: […]

A short description of data set [5]: Pharmacokinetics after single intravenous administration in rats (plasma voriconazole). How it is done:
Dosage for administration: 2.5 mg/kg (calculated as voriconazole)
Dosing volume for administration: 2.5 ml/kg
Drug concentration: 1 mg/mL (calculated as voriconazole)
Route of administration: tail vein injection Experimental animals: SD rats, SPF grade, weighing 180-220 g, half male and half female; the SD rats were randomized into groups of 6 animals each, three males and three females in each group. Experimental method: Blood samples were collected at different time points after tail vein administration, and the plasma concentrations of voriconazole were measured.

The nature of data set [6]: Solubility test in deionized water (HPLC, external calibration). It counts as physicochemical. The protocol:
Experimental condition: 25±2° C.
Dissolving medium: deionized water
Experimental method: 1 mg voriconazole and appropriate amount of each compound were weighed, placed in 1 ml deionized water separately, shaken vigorously for 30 s every 5 mins for 30 mins.

Data set [7] is described as follows: In vitro metabolic stability in human plasma. It counts as in vitro ADME. Conditions: 37°C, compound 10 μM. The protocol: The two reaction systems were set up three samples in parallel, while each sample was taken in an amount of 100 μL at 1 min, 2 mins, 5 mins, 15 mins, and 30 mins after the reaction, added to the centrifuge tube containing 400 μL of 0° C. pre-cooled internal standard working fluid and terminated the reaction. The sample was mixed by vortex for 1 min, centrifuged at 10,000×g for 10 mins in a 4° C. pre-cooled high-speed centrifuge. The supernatant was taken for HPLC detection.

The nature of data set [8]: Pharmacokinetics after single gastrointestinal (gavage) administration in rats (plasma voriconazole). The format is in vivo. Conditions: SD rats, 2.5 mg/kg (calculated as voriconazole). The protocol: Dosing volume for administration: 10 ml/kg
Solvent medium for administration: except for the positive voriconazole group using CMC-Na, the other groups using normal saline
Route of administration: gavage

Data set [9] concerns Candida albicans ATCC10231. The experiment in a line: Systemic fungal infection in mice, intravenous administration, survival. It counts as in vivo. Conditions: ICR mice, tail vein, 5 mg/kg (calculated as voriconazole) once daily for 5 days. The protocol: (§2) ICR mice, weighing 18-22 g, male, provided by the Hubei Experimental Animal Center.
(§3) The standard strain Candida albicans was purchased from the American Type Culture Collection, and the strain number was ATCC10231.
Before the experiment, a small amount of Candida albicans was picked from the SDA medium preserved at 4° C. by inoculation circle, and inoculated into 1 ml YPD (Yeast Extract Peptone Dextrose Medium, the same below) culture medium, under shake cultivation at 30° C., 200 rpm, activated for 16 hours to make the fungus in the late stage of the exponential growth phase. Blood cell counting plate was used to count. The concentration of the broth was adjusted to 1*10^3-5*10^3 CFU/ml with RPMI1640 (Roswell Park Memorial Institute 1640, the same below) culture medium. The Candida albicans monoclone on the SDA plate was picked and inoculated into 1 ml YPD medium, cultured at 35° C., 200 rpm for 16 hours to the late exponential growth phase, 1% of which was then inoculated in fresh medium for 6 hours, centrifuged at 1000×g for 5 mins, washed three times with saline until the supernatant was colorless, while hemocytometer was used to count. The cell concentration was adjusted to 5*10^6/ml. The tail vein injection of 0.1 ml/10 g was carried out to cause a systemic fungal infection in mice. The mice were randomized into groups of 10 each. Since voriconazole was insoluble in vehicle (physiological saline), the mice of the voriconazole group in the test were injected a commercially available voriconazole (Pfizer, product lot number Z467001), that is, sulfobutyl ether-β-cyclodextrin used as a solubilizer, while other groups used physiological saline as a solvent. After establishing a systemic fungal infection model in mice for 2 hours, each administration group was administered with 5 mg/kg (calculated as voriconazole) drug in the tail vein, with the volume for administration of 0.1 ml/10 g. The mice in the model group were administered 0.1 ml/10 g of 0.9% sodium chloride solution, once daily, for 5 consecutive days. The death situation of the mice was inspected and the survival time was recorded. After a total of 7 days of observation, all dead mice were treated with fire using ethanol.

Data set [10] relates to Candida albicans ATCC10231. The experiment in a line: Systemic fungal infection in mice, administration by gavage, survival. The format is in vivo. Particulars: ICR mice, 5 mg/kg (calculated as voriconazole) once daily for 5 days. The protocol:
as §2, §3
Before the experiment, a small amount of Candida albicans was picked from the SDA medium preserved at 4° C. by inoculation circle, inoculated into 1 ml of YPD culture medium, and cultured at 30° C. while being shaken at 200 rpm for 16 hours to make the fungus in the late stage of exponential growth. Blood cell counting plate was used to count, and the concentration of the broth was adjusted to 1*10^3−5*10^3 CFU/ml with RPMI1640 medium. The Candida albicans monoclone on the SDA plate was picked, inoculated into 1 ml YPD medium, cultured at 35° C., 200 rpm for 16 hours to the late exponential growth phase, 1% of which was then inoculated in fresh medium for 6 hours, centrifuged at 1000×g for 5 mins, washed three times with saline until the supernatant was colorless, while hemocytometer was used to count. The cell concentration was adjusted to 5*10^6/ml. The tail vein injection of 0.1 ml/10 g was carried out to cause a systemic fungal infection in mice. The mice were randomized into groups of 10 each. Voriconazole used was in the form of a suspension prepared with CMC-Na (Shanghai Panhong Chemical Technology Co., Ltd.), while other tested drugs were dissolved in saline and sonicated until clarified for administration. After establishing a systemic fungal infection model in mice for 2 hours, each group was administered by gavage with 5 mg/kg (calculated as voriconazole) drug, with the volume for administration of 0.1 ml/10 g. The mice in the model group were administered 0.1 ml/10 g of 0.9% sodium chloride solution, once daily, for 5 consecutive days. The death situation of the mice was inspected and the survival time was recorded. After a total of 7 days of observation, all dead mice were treated with fire using ethanol.

Where [11] appears, read: voriconazole in plasma, SD rats, tail vein injection, 2.5 mg/kg (calculated as voriconazole).

For `CN[C@@H](CSC(=O)OC(C)[n+]1cnn(C[C@](O)(c2ccc(F)cc2F)[C@@H](C)c2ncncc2F)c1)C(=O)O.Cl.[Cl-]` (stereo partly shown) [QR16035], the “Human intestinal S9 T1/2” value in data set [1] came out at 29.12 ± 2.09 min. Besides, the “Rat plasma T1/2” value in [2] was 11.85 ± 3.77 min. For the same molecule, in data set [3], the “Rat intestinal S9 T1/2” value was determined as 35.62 ± 8.12 min. The “Content increase of total impurity (25° C., placed for 30 days)” value in data set [4] worked out at 1.21%. In [5] (rat, in vivo, 2.5 mg/kg), the AUClast is 8256 ± 1256 ng·h/mL.
In data set [6] (25 °C, thermodynamic from solid, deionized water, 25±2°C), `CC(OC(=O)N(C)c1ncccc1CN)[n+]1cnn(C[C@](O)(c2ccc(F)cc2F)[C@@H](C)c2ncncc2F)c1` (stereo partly shown) [QR16022] showed a solubility at 30 min of over 50 mg/mL. Besides, the half-life at 10 µM stood at 26 ± 2.39 min in data set [7] (human, plasma, read-out: Human plasma T1/2); 43.2 ± 1.03 min in [1] (human, intestinal S9, read-out: Human intestinal S9 T1/2); 29.5 ± 7.85 min in [2] (rat, plasma, read-out: Rat plasma T1/2); 56 ± 10.3 min in [3] (rat, intestinal S9, pH 7.4, read-out: Rat intestinal S9 T1/2). The T1/2 result in [5] (rat, in vivo, 2.5 mg/kg) was “similar”.
As to `CC(OC(=O)N(C)c1ncccc1COC(=O)[C@@H](N)CCCCN)[n+]1cnn(C[C@](O)(c2ccc(F)cc2F)[C@@H](C)c2ncncc2F)c1.[Cl-]` (stereo partly shown) [QR16017], the Solubility in data set [6] is given as over 50 mg/mL. For the same molecule, in data set [7], the “Human plasma T1/2” value stood at 0.95 ± 0.28 min. The “Human intestinal S9 T1/2” value in [1] amounted to 11.25 ± 2.21 min. In addition, the “Rat plasma T1/2” value in data set [2] stood at 0.78 ± 0.86 min. Moreover, the “Rat intestinal S9 T1/2” value in [3] is recorded as 15.69 ± 6.95 min. Also, in [5] (setting [11]), the AUClast was 10259 ± 3285 ng·h/mL and the T1/2 was 167 ± 45 min. Also, in [8], the AUClast was 8695 ± 2958 ng·h/mL, the peak concentration (Cmax) is reported as 952 ± 421 ng/mL and the T1/2 is 177 ± 75 min. Besides, in data set [9], the “survival rate of mice, day 1” value is given as 100%; the “survival rate of mice, day 2” value is 100%; the “survival rate of mice, day 3” value was 100%; the “survival rate of mice, day 4” value was 100%. For the same molecule, in data set [9], the “survival rate of mice, day 5” value is 100% and the “survival rate of mice, day 6” value is listed as 100%. Moreover, in data set [10], the “survival rate of mice, day 1” value was 100%; the “survival rate of mice, day 2” value is recorded as 100%; the “survival rate of mice, day 3” value was 90%; the “survival rate of mice, day 4” value is given as 90%. Besides, in data set [10], the “survival rate of mice, day 5” value is listed as 90%; the “survival rate of mice, day 6” value is 90%; the “survival rate of mice, day 7” value is listed as 80%.
In data set [6], `CC(OC(=O)N(C)c1ncccc1COC(=O)[C@@H](N)CCN)[n+]1cnn(C[C@](O)(c2ccc(F)cc2F)[C@@H](C)c2ncncc2F)c1.[Cl-]` (stereo partly shown) [QR16005] yielded a Solubility of over 50 mg/mL. In addition, in [1], the “Human intestinal S9 T1/2” value is 18.21 ± 2.04 min. Besides, in data set [2], the “Rat plasma T1/2” value is recorded as 8.25 ± 1.28 min. Moreover, in data set [3], the “Rat intestinal S9 T1/2” value is listed as 26.52 ± 3.69 min.
In turn, `CC(OC(=O)N(C)c1ncccc1COC(=O)C(N)CO)[n+]1cnn(CC(O)(c2ccc(F)cc2F)C(C)c2ncncc2F)c1.Cl.Cl.[Cl-]` (stereo not shown) [QR16015] yielded a Solubility in [6] (deionized water, 25±2°C) of over 50 mg/mL. Also, in data set [7], the “Human plasma T1/2” value amounted to 2.05 ± 0.26 min. Moreover, the “Human intestinal S9 T1/2” value in [1] amounted to 12.72 ± 1.72 min. Besides, the “Rat plasma T1/2” value in data set [2] is recorded as 1.58 ± 0.95 min. Besides, the “Rat intestinal S9 T1/2” value in [3] amounted to 15.95 ± 4.96 min. Moreover, in [5] (rat, in vivo, 2.5 mg/kg), the AUClast stood at 10526 ± 2695 ng·h/mL and the T1/2 came to 171 ± 107 min. In [8], the AUClast was 8144 ± 1468 ng·h/mL, the Cmax is on record as 996 ± 365 ng/mL and the T1/2 was 167 ± 73.8 min. Moreover, in data set [9], the “survival rate of mice, day 1” value is recorded as 100%; the “survival rate of mice, day 2” value is 100%; the “survival rate of mice, day 3” value is given as 100%; the “survival rate of mice, day 4” value is recorded as 100%. In addition, in [9], the “survival rate of mice, day 5” value is on record as 100% and the “survival rate of mice, day 6” value is reported as 90%. Moreover, in data set [10], the “survival rate of mice, day 1” value was 100%; the “survival rate of mice, day 2” value is recorded as 100%; the “survival rate of mice, day 3” value is recorded as 100%; the “survival rate of mice, day 4” value was 100%. In addition, in data set [10], the “survival rate of mice, day 5” value was 100%; the “survival rate of mice, day 6” value is reported as 80%; the “survival rate of mice, day 7” value is 80%.
